# Test results reported in paper PMC3973950, “Synthesis of 5-arylidine amino-1,3,4-thiadiazol-2-[(N-substituted benzyol)]sulphonamides endowed with potent antioxidants and anticancer activity induces growth inhibition in HEK293, BT474 and NCI-H226 cells” (Medicinal Chemistry Research, 2013).
# System: NCI-H226 (lung cancer cell line)
# Assay: In vitro cytotoxicity by MTT assay, NCI-H226
# Format: cell-based
# Conditions: Homo sapiens, NCI-H226, 0.005 μM, 72 h, read-out: % Cytotoxicity (100 − % cell survival) of NCI-H226 cell line
# Outline: (§1)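 First, trypsinized cells went into wells at roughly 10,000 per well for 24 h. Next, medium was replaced with test compounds for 72 h at 37 °C. Finally, MTT was added for 4 h and the propanol-solubilized formazan read at 490 nm.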
row,SMILES,cytotoxicity at 0.005 µM [%]
1,"O=C(NS(=O)(=O)c1nnc(N=Cc2ccc(Cl)cc2)s1)c1ccccc1 [Compound 9b, N-({5-[(4-Chlorobenzylidene)amino]-1,3,4-thiadiazol-2-yl}sulfonyl)benzamide]",27.8

# Same assay, conditions: Homo sapiens, NCI-H226, 0.045 μM, 72 h, read-out: % Cytotoxicity (100 − % cell survival) of NCI-H226 cell line
row,SMILES,cytotoxicity at 0.045 µM [%]
1,"O=C(NS(=O)(=O)c1nnc(N=Cc2ccc(Cl)cc2)s1)c1ccccc1 [Compound 9b, N-({5-[(4-Chlorobenzylidene)amino]-1,3,4-thiadiazol-2-yl}sulfonyl)benzamide]",35.4

# Same assay, conditions: Homo sapiens, NCI-H226, 0.13 μM, 72 h, read-out: % Cytotoxicity (100 − % cell survival) of NCI-H226 cell line
row,SMILES,cytotoxicity at 0.13 µM [%]
1,"O=C(NS(=O)(=O)c1nnc(N=Cc2ccc(Cl)cc2)s1)c1ccccc1 [Compound 9b, N-({5-[(4-Chlorobenzylidene)amino]-1,3,4-thiadiazol-2-yl}sulfonyl)benzamide]",35.7

# Same assay, conditions: Homo sapiens, NCI-H226, 0.41 μM, 72 h, read-out: % Cytotoxicity (100 − % cell survival) of NCI-H226 cell line
row,SMILES,cytotoxicity at 0.41 µM [%]
1,"O=C(NS(=O)(=O)c1nnc(N=Cc2ccc(Cl)cc2)s1)c1ccccc1 [Compound 9b, N-({5-[(4-Chlorobenzylidene)amino]-1,3,4-thiadiazol-2-yl}sulfonyl)benzamide]",36.1

# Same assay, conditions: Homo sapiens, NCI-H226, 1.23 μM, 72 h, read-out: % Cytotoxicity (100 − % cell survival) of NCI-H226 cell line
row,SMILES,cytotoxicity at 1.23 µM [%]
1,"O=C(NS(=O)(=O)c1nnc(N=Cc2ccc(Cl)cc2)s1)c1ccccc1 [Compound 9b, N-({5-[(4-Chlorobenzylidene)amino]-1,3,4-thiadiazol-2-yl}sulfonyl)benzamide]",36.5

# Same assay, conditions: Homo sapiens, NCI-H226, 3.7 μM, 72 h, read-out: % Cytotoxicity (100 − % cell survival) of NCI-H226 cell line
row,SMILES,cytotoxicity at 3.7 µM [%]
1,"O=C(NS(=O)(=O)c1nnc(N=Cc2ccc(Cl)cc2)s1)c1ccccc1 [Compound 9b, N-({5-[(4-Chlorobenzylidene)amino]-1,3,4-thiadiazol-2-yl}sulfonyl)benzamide]",36.6

# Same assay, conditions: Homo sapiens, NCI-H226, 11.11 μM, 72 h, read-out: % Cytotoxicity (100 − % cell survival) of NCI-H226 cell line
row,SMILES,cytotoxicity at 11.11 µM [%]
1,"O=C(NS(=O)(=O)c1nnc(N=Cc2ccc(Cl)cc2)s1)c1ccccc1 [Compound 9b, N-({5-[(4-Chlorobenzylidene)amino]-1,3,4-thiadiazol-2-yl}sulfonyl)benzamide]",37

# Same assay, conditions: Homo sapiens, NCI-H226, 33.33 μM, 72 h, read-out: % Cytotoxicity (100 − % cell survival) of NCI-H226 cell line
row,SMILES,cytotoxicity at 33.33 µM [%]
1,"O=C(NS(=O)(=O)c1nnc(N=Cc2ccc(Cl)cc2)s1)c1ccccc1 [Compound 9b, N-({5-[(4-Chlorobenzylidene)amino]-1,3,4-thiadiazol-2-yl}sulfonyl)benzamide]",37.7

# Same assay, conditions: Homo sapiens, NCI-H226, 100 μM, 72 h, read-out: % Cytotoxicity (100 − % cell survival) of NCI-H226 cell line
row,SMILES,cytotoxicity at 100 µM [%]
1,"O=C(NS(=O)(=O)c1nnc(N=Cc2ccc(Cl)cc2)s1)c1ccccc1 [Compound 9b, N-({5-[(4-Chlorobenzylidene)amino]-1,3,4-thiadiazol-2-yl}sulfonyl)benzamide]",38

# System: not listed separately
# Assay: In vitro cytotoxicity by MTT assay, NCI-H226
# Format: cell-based
# Conditions: human, NCI-H226 lung cancer cells, 0.015 μM, read-out: % Cytotoxicity (100 − % cell survival) of NCI-H226 cell line
# Outline: as §1
row,SMILES,"cytotoxicity at 72 h, 0.015 µM [%]"
1,"O=C(NS(=O)(=O)c1nnc(N=Cc2ccc(Cl)cc2)s1)c1ccccc1 [Compound 9b, N-({5-[(4-Chlorobenzylidene)amino]-1,3,4-thiadiazol-2-yl}sulfonyl)benzamide]",29.5

# System: root meristem cells of Allium cepa
# Assay: In vitro antimitotic activity and cytogenetic analysis, Allium cepa meristem root model
# Format: cell-based
# Conditions: compounds 1 mg/mL, PC (EMS) 2 × 10^−2 M
# Outline: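 Onion roots (about 2–2.5 cm, five bulbs per sample) exposed to compound at 1 mg/mL at 22 ± 1 °C, with distilled water as negative and EMS (2 × 10^−2 M) as positive control. After 24 h, orcein-stained root tips were scored for mitotic index, chromatin aberrations and micronuclei per 1,000 cells. Root length at 72 h served as the general toxicity index, expressed as percentage of controls.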
Aberrant cells (%) ± SEM [%],Chromosome breaks (%) ± SEM [%],Polar deviations (%) ± SEM [%],Stickiness (%) ± SEM [%],SMILES,"MNC (‰) ± SEM (micronuclei per 1,000 cells)"
24.64 ± 7.01,3.36 ± 0.57,7.32 ± 1.24,9.12 ± 1.33,"O=C(NS(=O)(=O)c1nnc(N=Cc2ccc(Cl)cc2)s1)c1ccccc1 [Compound 9b, N-({5-[(4-Chlorobenzylidene)amino]-1,3,4-thiadiazol-2-yl}sulfonyl)benzamide]",0.42 ± 0.18 ‰

# Same assay, conditions: compounds 1 mg/mL, PC (EMS) 2 × 10^−2 M; lower MI = higher activity; negative control 6.22
row,SMILES,MI (%) ± SEM (mitotic index) [%]
1,"O=C(NS(=O)(=O)c1nnc(N=Cc2ccc(Cl)cc2)s1)c1ccccc1 [Compound 9b, N-({5-[(4-Chlorobenzylidene)amino]-1,3,4-thiadiazol-2-yl}sulfonyl)benzamide]",2.77 ± 0.19

# System: not listed separately
# Assay: Superoxide anion radical scavenging (NBT/NADH/PMS)
# Format: biochemical
# Conditions: Conc. ± SD; standard catechin; read-out: IC50 inhibitory concentration, Superoxide anion
# Protocol: Measurement of superoxide anion scavenging activity of the synthesized compound was taken based on the method described by Nishimiki et al. ([1972]) and slightly modified. […] The reaction mixture was incubated at 25 °C for 5 min, and the absorbance at 560 nm was measured against blank samples. Catechin was used as reference compound. All the experiments were performed in triplicate, and the results were averaged. The percentage of inhibition was determined by comparing the results of control and test samples. The IC50 (nM/mL) value are depicted in Table 1.
row,IC50 [µM],SMILES
1,76.3 ± 11.8,"O=C(NS(=O)(=O)c1nnc(N=Cc2ccc(Cl)cc2)s1)c1ccccc1 [Compound 9b, N-({5-[(4-Chlorobenzylidene)amino]-1,3,4-thiadiazol-2-yl}sulfonyl)benzamide]"

# System: not given
# Assay: not given
# Conditions: not given
row,melting point [°C],SMILES
1,212 to 214,"O=C(NS(=O)(=O)c1nnc(N=Cc2ccc(Cl)cc2)s1)c1ccccc1 [Compound 9b, N-({5-[(4-Chlorobenzylidene)amino]-1,3,4-thiadiazol-2-yl}sulfonyl)benzamide]"

# System: not listed separately
# Assay: In vitro cytotoxicity by MTT assay, HEK 293
# Format: cell-based, human
# Conditions: human, HEK 293 cells, 0.005 μM, read-out: % cytotoxicity (100 − % cell survival) of HEK 293 cell line
# Outline: as §1
row,SMILES,"cytotoxicity at 72 h, 0.005 µM [%]"
1,"O=C(NS(=O)(=O)c1nnc(N=Cc2ccc(Cl)cc2)s1)c1ccccc1 [Compound 9b, N-({5-[(4-Chlorobenzylidene)amino]-1,3,4-thiadiazol-2-yl}sulfonyl)benzamide]",33.2

# Same assay, conditions: human, HEK 293 cells, 0.015 μM, read-out: % cytotoxicity (100 − % cell survival) of HEK 293 cell line
row,SMILES,"cytotoxicity at 72 h, 0.015 µM [%]"
1,"O=C(NS(=O)(=O)c1nnc(N=Cc2ccc(Cl)cc2)s1)c1ccccc1 [Compound 9b, N-({5-[(4-Chlorobenzylidene)amino]-1,3,4-thiadiazol-2-yl}sulfonyl)benzamide]",34.1

# Same assay, conditions: human, HEK 293 cells, 0.045 μM, read-out: % cytotoxicity (100 − % cell survival) of HEK 293 cell line
row,SMILES,"cytotoxicity at 72 h, 0.045 µM [%]"
1,"O=C(NS(=O)(=O)c1nnc(N=Cc2ccc(Cl)cc2)s1)c1ccccc1 [Compound 9b, N-({5-[(4-Chlorobenzylidene)amino]-1,3,4-thiadiazol-2-yl}sulfonyl)benzamide]",34.6

# Same assay, conditions: human, HEK 293 cells, 0.13 μM, read-out: % cytotoxicity (100 − % cell survival) of HEK 293 cell line
row,SMILES,"cytotoxicity at 72 h, 0.13 µM [%]"
1,"O=C(NS(=O)(=O)c1nnc(N=Cc2ccc(Cl)cc2)s1)c1ccccc1 [Compound 9b, N-({5-[(4-Chlorobenzylidene)amino]-1,3,4-thiadiazol-2-yl}sulfonyl)benzamide]",36.6

# Same assay, conditions: human, HEK 293 cells, 0.41 μM, read-out: % cytotoxicity (100 − % cell survival) of HEK 293 cell line
row,SMILES,"cytotoxicity at 72 h, 0.41 µM [%]"
1,"O=C(NS(=O)(=O)c1nnc(N=Cc2ccc(Cl)cc2)s1)c1ccccc1 [Compound 9b, N-({5-[(4-Chlorobenzylidene)amino]-1,3,4-thiadiazol-2-yl}sulfonyl)benzamide]",37.7

# Same assay, conditions: human, HEK 293 cells, 1.23 μM, read-out: % cytotoxicity (100 − % cell survival) of HEK 293 cell line
row,SMILES,"cytotoxicity at 72 h, 1.23 µM [%]"
1,"O=C(NS(=O)(=O)c1nnc(N=Cc2ccc(Cl)cc2)s1)c1ccccc1 [Compound 9b, N-({5-[(4-Chlorobenzylidene)amino]-1,3,4-thiadiazol-2-yl}sulfonyl)benzamide]",38

# Same assay, conditions: human, HEK 293 cells, 3.7 μM, read-out: % cytotoxicity (100 − % cell survival) of HEK 293 cell line
row,SMILES,"cytotoxicity at 72 h, 3.7 µM [%]"
1,"O=C(NS(=O)(=O)c1nnc(N=Cc2ccc(Cl)cc2)s1)c1ccccc1 [Compound 9b, N-({5-[(4-Chlorobenzylidene)amino]-1,3,4-thiadiazol-2-yl}sulfonyl)benzamide]",38.2

# Same assay, conditions: human, HEK 293 cells, 11.11 μM, read-out: % cytotoxicity (100 − % cell survival) of HEK 293 cell line
row,SMILES,"cytotoxicity at 72 h, 11.11 µM [%]"
1,"O=C(NS(=O)(=O)c1nnc(N=Cc2ccc(Cl)cc2)s1)c1ccccc1 [Compound 9b, N-({5-[(4-Chlorobenzylidene)amino]-1,3,4-thiadiazol-2-yl}sulfonyl)benzamide]",38.6

# Same assay, conditions: human, HEK 293 cells, 33.33 μM, read-out: % cytotoxicity (100 − % cell survival) of HEK 293 cell line
row,SMILES,"cytotoxicity at 72 h, 33.33 µM [%]"
1,"O=C(NS(=O)(=O)c1nnc(N=Cc2ccc(Cl)cc2)s1)c1ccccc1 [Compound 9b, N-({5-[(4-Chlorobenzylidene)amino]-1,3,4-thiadiazol-2-yl}sulfonyl)benzamide]",38.9

# Same assay, conditions: human, HEK 293 cells, 100 μM, read-out: % cytotoxicity (100 − % cell survival) of HEK 293 cell line
row,SMILES,"cytotoxicity at 72 h, 100 µM [%]"
1,"O=C(NS(=O)(=O)c1nnc(N=Cc2ccc(Cl)cc2)s1)c1ccccc1 [Compound 9b, N-({5-[(4-Chlorobenzylidene)amino]-1,3,4-thiadiazol-2-yl}sulfonyl)benzamide]",40.7
